Values quoted from earlier work, collected in US8334298B2, “Treatment or prevention of ovarian hyperstimulation syndrome (OHSS) using a dopamine agonist” (Ferring International Center S.A., priority 2005, dated 2012).

Tested on: patients with treatment-resistant OHSS
Details: oral docarpamine, 27 patients; cited from earlier work

SMILES: CCOC(=O)Oc1ccc(CCNC(=O)[C@H](CCSC)NC(C)=O)cc1OC(=O)OCC [docarpamine]
- ascites: ascites was decreased
- diuresis: Diuresis was increased in some women
